Converted amounts (≈) assume the structure as drawn. Where two headings read alike, the source gives them in different places. Blank lines part the entries; values can stand above or below the compound they belong to.
Columns and labels:
[1] = test system: Pseudomonas aeruginosa ATCC 25619; experiment: MIC on agar plate by two fold dilution (Japan Society of Chemotherapy) against Pseudomonas aeruginosa ATCC 25619; type: cell-based; details: ATCC25619, P. aeruginosa ATCC 25619, in 0.01N-sodium hydrogen carbonate, read-out: minimal inhibitory concentration (MIC)
From the text: By altering the groups with the followings, the activity varied as below (AT=2-amino-4-thiazolyl).

[2] = test system: Pseudomonas aeruginosa SR 24; experiment: MIC against Pseudomonas aeruginosa SR 24; type: cell-based; details: SR24
[3] = urinary and bile juice recovery after subcutaneous injection; type: in vivo; details: urine and bile, sc; during 2 hours after subcutaneous injection (20 mg/kg); read-out: urinary and bile juice recovery (total)
[4] = test system: Pseudomonas aeruginosa SR 24; experiment: 50% effective dose for preventing mouse from death caused by Pseudomonas aeruginosa SR 24; type: in vivo
Description: The 50% effective dose of compound (I) where R^1 is 2-(2-amino-4-thiazolyl)-2-(1-carboxy-1-methylethoxy)imino-acetamido, R^2 is hydrogen, R^3 is methyl, R^4 R^5 is 3,4-dihydroxybenzoyl, R^6 combined with Y^- is a negative charge, X is sulfur for preventing mouse from the death caused by Pseudomonas aeruginose SR 24 is 1.25 mg/kg.

[5] = test system: Serratia marcescens A 13880; experiment: ED50 against Serratia marcescens A 13880; type: in vivo; details: A13880, mouse
[6] = safety test, intravenous injection, mouse; type: in vivo; details: dose up to 1 g/kg
[7] = test system: Pseudomonas aeruginosa SR 5018; experiment: MIC against ofloxacin resistant Pseudomonas aeruginosa SR 5018; type: cell-based
[8] = test system: Morgania morganii; experiment: antibacterial activity against clinically isolated Morgania morganii; type: cell-based
[9] = test system: Pseudomonas aeruginosa SR 4967; experiment: ED50 against Pseudomonas aeruginosa SR 4967; type: in vivo; details: SR4967, mouse
[10] = antibacterial activity against clinically isolated Clostridium freundii; type: cell-based
[11] = test system: Enterobacter cloacae; experiment: antibacterial activity against clinically isolated Enterobacter cloacae; type: cell-based
[12] = safety test, intravenous injection, rabbit; type: in vivo; details: dose up to 1 g/kg

MIC [1]: > 100 µg/mL
SMILES: CO[C@@]1(NC(=O)CSC(F)F)C(=O)N2C(C(=O)[O-])=C(C[N+]3(C)CCN(C(=O)c4ccc(O)c(O)c4)CC3)CO[C@@H]21 [No. 1]

MIC [1]: 0.05 µg/mL (≈ 0.0774 µM)
SMILES: CO/N=C(\C(=O)N[C@@H]1C(=O)N2C(C(=O)[O-])=C(C[N+]3(C)CCN(CC(=O)c4ccc(O)c(O)c4)CC3)CS[C@H]12)c1csc(N)n1 [No. 6]

MIC [1]: 0.02 µg/mL (≈ 0.0271 µM)
SMILES: CC(C)(O/N=C(\C(=O)N[C@@H]1C(=O)N2C(C(=O)[O-])=C(C[N+]3(C)CCN(C(=O)c4cc(O)c(O)c(Cl)c4)CC3)CS[C@H]12)c1csc(N)n1)C(=O)O [No. 11]

MIC [1]: 0.02 µg/mL (≈ 0.0271 µM)
SMILES: CC(C)(O/N=C(\C(=O)N[C@@H]1C(=O)N2C(C(=O)[O-])=C(C[N+]3(C)CCN(C(=O)c4cc(O)c(O)cc4Cl)CC3)CS[C@H]12)c1csc(N)n1)C(=O)O [No. 12]

MIC [1]: 3.1 µg/mL (≈ 4.32 µM)
SMILES: COc1cc(C(=O)N2CC[N+](C)(CC3=C(C(=O)[O-])N4C(=O)[C@@H](NC(=O)C(=NOC(C)(C)C(=O)O)c5csc(N)n5)[C@H]4SC3)CC2)ccc1O [No. 14]

The remaining lines, values behind:

SMILES: C[N+]1(CC2=C(C(=O)[O-])N3C(=O)[C@@H](NC(=O)Cc4ccccc4)[C@H]3SC2)CCN(C(=O)c2ccc(O)c(O)c2)CC1 [No. 2]
MIC [1]: > 100 µg/mL

SMILES: CO/N=C(\C(=O)N[C@@H]1C(=O)N2C(C(=O)[O-])=C(C[N+]3(C)CCN(C(=O)c4ccc(O)c(O)c4)CC3)CS[C@H]12)c1csc(N)n1 [No. 3]
MIC [1]: 0.05 µg/mL (≈ 0.0792 µM)

SMILES: CC(C)(O/N=C(\C(=O)N[C@@H]1C(=O)N2C(C(=O)[O-])=C(C[N+]3(C)CCN(C(=O)c4ccc(O)c(O)c4)CC3)CS[C@H]12)c1csc(N)n1)C(=O)O [No. 8, 7β-[2-(2-amino-4-thiazolyl)-2-(1-carboxy-1-methylethoxyimino)acetamido]-3-[4-(3,4-dihydroxybenzoyl)-1-methylpiperazinio-1-yl]methyl-3-cephem-4-carboxylate]
MIC [2]: 0.1 µg/mL (≈ 0.142 µM)
dose excreted at 2 h [3]: 70.4%
ED50 ([4]; Pseudomonas aeruginosa, SR24, read-out: 50% effective dose for preventing mouse from death): 1.25 mg/kg
ED50 ([4]; SR24, mouse, Pseudomonas aeruginosa SR 24, read-out: ED50 (mouse)): 1.41 mg/kg
times more potent (ED50) than reference 3-(3,4-dihydroxybenzyl) compound ([4]; vs 3.4 mg/kg of the reference, P. aeruginosa SR 24): 2.4 times
times more potent (ED50) than reference 3-(dihydroxyphenylthiadiazolylthio)methyl compound ([4]; vs 16.3 mg/kg of the reference, P. aeruginosa SR 24): 11.6 times
ED50 [5]: 0.28 mg/kg
death [6]: did not show death
MIC ([7]; SR5018, ofloxacin resistant Pseudomonas aeruginosa SR 5018): 0.05 µg/mL (≈ 0.071 µM)
times more potent (MIC) than BO-1341 ([7]; vs 0.4 γ/ml of BO-1341, P. aeruginosa SR 5018): 8 times
times more potent (MIC) than E-1040 ([7]; vs 6.3 γ/ml of E-1040, P. aeruginosa SR 5018): 126 times
times more potent (MIC) than ceftazidime ([7]; vs 25 γ/ml of ceftazidime, P. aeruginosa SR 5018): 500 times
antibacterial activity [8]: high antibacterial activity
ED50 [9]: 4.91 mg/kg
antibacterial activity [10]: high antibacterial activity
antibacterial activity [11]: high antibacterial activity
death [12]: did not show death

SMILES: CC(C)(O/N=C(\C(=O)N[C@@H]1C(=O)N2C(C(=O)[O-])=C(C[N+]3(C)CCN(C(=O)c4ccc(O)c(O)c4Cl)CC3)CS[C@H]12)c1csc(N)n1)C(=O)O [No. 9, 7β-[2-(2-aminothiazol-4-yl)-2-(1-carboxy-1-methylethoxyimino)acetamido]-3-[4-(2-chloro-3,4-dihydroxybenzoyl)-1-methylpiperazinio-1-yl]methyl-3-cephem-4-carboxylate]
MIC [1]: 0.02 µg/mL (≈ 0.0271 µM)

SMILES: CC(C)(O/N=C(\C(=O)N[C@@H]1C(=O)N2C(C(=O)[O-])=C(C[N+]3(C)CCN(C(=O)c4cc(Cl)c(O)c(O)c4Cl)CC3)CS[C@H]12)c1csc(N)n1)C(=O)O [No. 13]
MIC [1]: 0.02 µg/mL (≈ 0.0259 µM)

SMILES: CC(C)(O/N=C(\C(=O)N[C@@H]1C(=O)N2C(C(=O)[O-])=C(C[N+]3(C)CCN(Cc4ccc(O)c(O)c4)CC3)CS[C@H]12)c1csc(N)n1)C(=O)O [No. 15]
MIC [1]: 0.1 µg/mL (≈ 0.145 µM)

SMILES: C=C(O/N=C(\C(=O)N[C@@H]1C(=O)N2C(C(=O)[O-])=C(C[N+]3(C)CCN(C(=O)c4ccc(O)c(O)c4)CC3)CS[C@H]12)c1csc(N)n1)C(=O)O [No. 17]
MIC [1]: 0.05 µg/mL (≈ 0.0727 µM)
